In PubChem BioAssay (NCI) one finds TGI and GI50 data, which are given here for 8 compounds.

Structures are written as SMILES.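 Exposure lasted 48 hours, with cells grown in 96-well plates and compounds tested at five concentrations. GI50: concentration for 50% inhibition of growth. Definition used: TGI = concentration required for complete inhibition of growth.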

Test systems include A498 renal; A549 NSCLC; HCT-15 colon; HL-60(TB) leukemia; NCI-H522 lung; RPMI-8226 leukemia; SF-295 CNS; SF-539 CNS; SK-MEL-2 melanoma; SNB-75 CNS.
What all share (test): NCI anticancer screen, dose series, 48 h

As for `COc1ccc(/C=C2\CCC(C)(CN(C)C)C2=O)cc1Br` (stereo not given), the TGI with A498 renal was 50 µM; with A549 NSCLC, over 100 µM; in the assay on HCT-15 colon, 32.2 µM; in the assay on HL-60(TB) leukemia, 85.2 µM; in the assay with NCI-H522 lung it was 32.8 µM; with RPMI-8226 leukemia it was 58.4 µM. In addition, the TGI was 80.7 µM with SF-295 CNS, 43.5 µM with SF-539 CNS, 36.9 µM with SK-MEL-2 melanoma and 76.3 µM in the assay with SNB-75 CNS.

On to `Cc1cccc(Nc2ncc(-c3ccccc3)o2)c1`, for which the GI50 with A498 renal, in the assay on A549 NSCLC, in the assay with HCT-15 colon, in the assay with HL-60(TB) leukemia, with NCI-H522 lung and with RPMI-8226 leukemia was over 25 µM throughout. In addition, the GI50 in the assay with SF-295 CNS, in the assay with SF-539 CNS, in the assay with SK-MEL-2 melanoma and in the assay with SNB-75 CNS was over 25 µM each time. In addition, the TGI in the assay on A498 renal, in the assay with A549 NSCLC, with HCT-15 colon, in the assay with HL-60(TB) leukemia, with NCI-H522 lung and in the assay on RPMI-8226 leukemia was over 25 µM throughout. The TGI in the assay with SF-295 CNS, in the assay on SF-539 CNS, with SK-MEL-2 melanoma and in the assay with SNB-75 CNS was over 25 µM throughout.

For the compound `Nc1ncnc2c1ncn2Cc1ccc(CCl)cc1`, the GI50 was 12.6 µM in the assay on A498 renal; 17.1 µM in the assay on A549 NSCLC; 21.9 µM with HCT-15 colon; 54.7 µM in the assay with HL-60(TB) leukemia; 24 µM in the assay on NCI-H522 lung; 15.1 µM in the assay on RPMI-8226 leukemia. The GI50 in the assay on SF-295 CNS was 15.7 µM; in the assay on SF-539 CNS it was 16.7 µM; with SK-MEL-2 melanoma it was 32.6 µM; in the assay with SNB-75 CNS, 22.3 µM. Besides, the TGI is 31.9 µM in the assay with A498 renal; 35.1 µM in the assay with A549 NSCLC; 41.5 µM in the assay with HCT-15 colon; over 100 µM with HL-60(TB) leukemia; 51.9 µM in the assay on NCI-H522 lung; over 100 µM with RPMI-8226 leukemia. Further, the TGI in the assay on SF-295 CNS amounted to 34.4 µM; in the assay with SF-539 CNS it was 38.4 µM; in the assay with SK-MEL-2 melanoma, 97.5 µM; in the assay with SNB-75 CNS, 62.6 µM.

Turning to `Cc1nc(-n2nc(-c3ccccc3)cc2-c2ccccc2)sc1C(/C=C\c1ccc([N+](=O)[O-])cc1)=N/NC(=S)NN`, the TGI is over 100 µM in the assay with A498 renal; over 100 µM in the assay on A549 NSCLC; 56.6 µM with HCT-15 colon; over 87.2 µM in the assay with HL-60(TB) leukemia; 42.3 µM with NCI-H522 lung; over 100 µM with RPMI-8226 leukemia. For the same compound, the TGI was over 100 µM in the assay on SF-295 CNS, over 61.3 µM in the assay with SF-539 CNS, 98.5 µM in the assay with SK-MEL-2 melanoma and over 100 µM in the assay with SNB-75 CNS.

With `OCC1OC(n2cnc3cc(Cl)c(Cl)cc32)C(O)C1O` (stereo not given), the GI50 is over 47.3 µM with A498 renal; 18.8 µM with A549 NSCLC; 14.8 µM with HCT-15 colon; 20 µM in the assay on HL-60(TB) leukemia; 16.3 µM in the assay on NCI-H522 lung; 30 µM in the assay on RPMI-8226 leukemia. Also, the GI50 in the assay on SF-295 CNS was 24.6 µM; in the assay with SF-539 CNS, 19.9 µM; with SK-MEL-2 melanoma, 14.3 µM; in the assay with SNB-75 CNS, 31.2 µM. Moreover, the TGI with A498 renal is over 67.7 µM; with A549 NSCLC, over 72.4 µM; in the assay with HCT-15 colon it was 37.5 µM; in the assay on HL-60(TB) leukemia, over 100 µM; in the assay on NCI-H522 lung it was 54.4 µM; with RPMI-8226 leukemia, over 72.5 µM. Moreover, the TGI in the assay with SF-295 CNS is 85.2 µM; in the assay with SF-539 CNS, 44.7 µM; in the assay on SK-MEL-2 melanoma, 35.9 µM; in the assay with SNB-75 CNS, over 74.2 µM.

Regarding `Clc1ccc(Nc2nnc(COc3ccccc3)c3ccccc23)cc1`, the GI50 in the assay with A498 renal is 0.686 µM; with A549 NSCLC, 2.87 µM; in the assay with HCT-15 colon it was 2.05 µM; with HL-60(TB) leukemia, 3.56 µM; in the assay with NCI-H522 lung, 0.354 µM; with RPMI-8226 leukemia, 1.37 µM. Besides, the GI50 in the assay on SF-295 CNS is 1.65 µM; in the assay on SF-539 CNS, 3.12 µM; with SK-MEL-2 melanoma, 0.971 µM; with SNB-75 CNS, 0.498 µM. Also, the TGI came out at 3.64 µM with A498 renal; 12.3 µM with A549 NSCLC; 6.75 µM in the assay with HCT-15 colon; 11.9 µM in the assay on HL-60(TB) leukemia; 4.04 µM with NCI-H522 lung; 6.96 µM in the assay on RPMI-8226 leukemia. Besides, the TGI with SF-295 CNS stood at 6.7 µM; in the assay with SF-539 CNS, 7.58 µM; in the assay on SK-MEL-2 melanoma it was 5.13 µM; with SNB-75 CNS it was 6.65 µM.

With `Cn1cc(-c2nc(-c3c[nH]c4ccccc34)cs2)c2cccnc21`, the GI50 in the assay with A498 renal is 0.315 µM; with A549 NSCLC, 0.608 µM; in the assay on HCT-15 colon, 0.221 µM; in the assay on HL-60(TB) leukemia, 0.317 µM; in the assay on NCI-H522 lung it was 0.0586 µM; in the assay with RPMI-8226 leukemia it was 0.541 µM. Besides, the GI50 with SF-295 CNS is 0.268 µM; in the assay on SF-539 CNS it was 0.282 µM; with SK-MEL-2 melanoma, 0.353 µM; in the assay on SNB-75 CNS it was 0.161 µM. Besides, the TGI with A498 renal was 6.1 µM; in the assay with A549 NSCLC it was over 100 µM; in the assay with HCT-15 colon it was over 100 µM; in the assay with HL-60(TB) leukemia, over 72.4 µM; with NCI-H522 lung it was 6.67 µM; in the assay with RPMI-8226 leukemia it was 32.3 µM. For the same compound, the TGI in the assay with SF-295 CNS was 19.8 µM; in the assay on SF-539 CNS it was 1.44 µM; in the assay on SK-MEL-2 melanoma, 51.8 µM; with SNB-75 CNS it was 0.779 µM.

With `NC(=O)C1CCCN1Cc1ccc2c(c1)OCO2` (stereo not given), the TGI in the assay on A498 renal, in the assay on A549 NSCLC, in the assay with HCT-15 colon, in the assay on HL-60(TB) leukemia, with NCI-H522 lung and in the assay on RPMI-8226 leukemia was over 100 µM in each case. Also, the TGI in the assay with SF-295 CNS, in the assay with SF-539 CNS, in the assay on SK-MEL-2 melanoma and in the assay on SNB-75 CNS was over 100 µM each time.
